In patent publication US12655150B2 (Cedilla Therapeutics, Inc., priority 2021, dated 2026):

System: NCI-H226
Assay: 72H TEAD Proliferation Assay (Cell Titer Glo 2.0)
Assay type: cell-based
Details: Homo sapiens, NCI-H226, 72 h, CTG 2.0, cell line not given (NCI-H226 responsive, NCI-H28 non-responsive)
In short: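 Growth read-out is ATP luminescence (CellTiter-Glo 2.0) after 72 h compound exposure, corrected for no-CTG background and day-0 values, with GI50 from nonlinear regression. Sensitive line NCI-H226 (NF2-deficient); non-responsive NCI-H28 (NF2 wild type) distinguishes TEAD-driven from nonspecific growth inhibition.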

Row | GI50 [nM] | SMILES
1 | ≤ 1000 | C=CC(=O)N(C)Cc1cn2ccnc2c(-c2ccc(C(F)(F)F)cc2)n1 [I-177, N-Methyl-N-((8-(4-(trifluoromethyl)phenyl)imidazo[1,2-a]pyrazin-6-yl)methyl)acrylamide]
2 | ≤ 1000 | C[C@H](CO)NC(=O)c1ccc2c(C3CC3)cc(-c3ccc(C(F)(F)F)cc3)nc2c1 [I-386, (R)-4-cyclopropyl-N-(1-hydroxypropan-2-yl)-2-(4-(trifluoromethyl)phenyl)quinoline-7-carboxamide]
3 | ≤ 1000 | O=C(O)c1ccc2c(c1)nc(N1CCC3(CCC3)CC1)c1cccn12 [I-6, 4-(7-Azaspiro[3.5]nonan-7-yl)pyrrolo[1,2-a]quinoxaline-7-carboxylic acid]
4 | > 10000 | COC(=O)/C=C/c1cn2ccnc2c(-c2ccc(C(C)(C)C)cc2)n1 [I-151, Methyl (E)-3-(8-(4-(tert-butyl)phenyl)imidazo[1,2-a]pyrazin-6-yl)acrylate]
5 | ≤ 1000 | C=CC(=O)NCc1nc(-c2ccc(C(F)(F)F)cc2)c2ccn(C)c2n1 [I-292, N-((7-methyl-4-(4-(trifluoromethyl)phenyl)-7H-pyrrolo[2,3-d]pyrimidin-2-yl)methyl)acrylamide]
6 | 1000 to 5000 | C[C@H](CO)NC(=O)c1ccc2ccc(-c3ccc(C(F)(F)F)cc3)nc2c1 [I-427, (R)—N-(1-hydroxypropan-2-yl)-2-(4-(trifluoromethyl)phenyl)quinoline-7-carboxamide]
7 | 1000 to 5000 | O=C(O)c1ccc2c(c1)nc(C13CC(C(F)(F)F)(C1)C3)c1cccn12 [I-272, 4-(3-(trifluoromethyl)bicyclo[1.1.1]pentan-1-yl)pyrrolo[1,2-a]quinoxaline-7-carboxylic acid]
8 | 1000 to 5000 | COCC(C)CC(=O)N1CCc2c(cccc2-c2ccc(C(F)(F)F)cc2)C1 (stereo not drawn) [I-137, 4-Methoxy-3-methyl-1-(5-(4-(trifluoromethyl)phenyl)-3,4-dihydroisoquinolin-2(1H)-yl)butan-1-one]
9 | ≤ 1000 | Cc1cc2c(N3CCC(C(F)(F)F)CC3)nc3cc(C(=O)O)ccc3n2c1 [I-406, 2-Methyl-4-(4-(trifluoromethyl)piperidin-1-yl)pyrrolo[1,2-a]quinoxaline-7-carboxylic acid]
10 | ≤ 1000 | C=C(F)C(=O)NCc1cn2ccnc2c(-c2ccc(C(F)(F)F)cc2)n1 [I-178, 2-Fluoro-N-((8-(4-(trifluoromethyl)phenyl)imidazo[1,2-a]pyrazin-6-yl)methyl)acrylamide]
11 | ≤ 1000 | C=CC(=O)NCc1cn2c(F)ccc2c(-c2ccc(C(F)(F)F)cc2)n1 [I-318, N-((6-Fluoro-1-(4-(trifluoromethyl)phenyl)pyrrolo[1,2-a]pyrazin-3-yl)methyl)acrylamide]
12 | > 10000 | C=CC(=O)Nc1cc(-c2ccc(C(C)(C)C)cc2)nc2cc(C(=O)O)ccc12 [I-103, 4-Acrylamido-2-(4-(tert-butyl)phenyl)quinoline-7-carboxylic acid]
13 | > 10000 | O=C(O)c1ccc2c(c1)nc(N1CCCCC1)c1cccn12 [I-2, 4-(Piperidin-1-yl)pyrrolo[1,2-a]quinoxaline-7-carboxylic acid]
14 | ≤ 1000 | O=C(/C=C/CF)NCc1cn2ccnc2c(-c2ccc(C(F)(F)F)cc2F)n1 [I-291, (E)-4-fluoro-N-((8-(2-fluoro-4-(trifluoromethyl)phenyl)imidazo[1,2-a]pyrazin-6-yl)methyl)but-2-enamide]
15 | ≤ 1000 | O=C(O)c1ccc2c(OCC3CC3)cc(-c3ccc(C(F)(F)F)cc3)nc2c1 [I-375, 4-(cyclopropylmethoxy)-2-(4-(trifluoromethyl)phenyl)quinoline-7-carboxylic acid]
16 | ≤ 1000 | C=CC(=O)Nc1ccc2c(C)cc(-c3ccc(C(C)(C)C)cc3)nc2c1 [I-86, N-(2-(4-(tert-Butyl)phenyl)-4-methylquinolin-7-yl)acrylamide]
17 | ≤ 1000 | COc1cc(-c2ccc(C(F)(F)F)cc2)nc2cc(C(=O)N[C@@H](CO)C(C)C)ccc12 [I-343, (R)—N-(1-hydroxy-3-methylbutan-2-yl)-4-methoxy-2-(4-(trifluoromethyl)phenyl)quinoline-7-carboxamide]
18 | ≤ 1000 | Cc1cc(-c2ccc(C(F)(F)F)cc2)nc2cc(C(=O)N[C@@H](C)CO)ccc12 [I-262, (S)—N-(1-hydroxypropan-2-yl)-4-methyl-2-(4-(trifluoromethyl)phenyl)quinoline-7-carboxamide]
19 | > 10000 | CC(C)(C)C#Cc1nc2cc(C(=O)O)ccc2n2cccc12 [I-118, 4-(3,3-Dimethylbut-1-yn-1-yl)pyrrolo[1,2-a]quinoxaline-7-carboxylic acid]
20 | 1000 to 5000 | O=C(O)c1cc(CO)c2c(c1)nc(N1CCC3(CC1)CC3)c1cccn12 [I-278, 9-(hydroxymethyl)-4-(6-azaspiro[2.5]octan-6-yl)pyrrolo[1,2-a]quinoxaline-7-carboxylic acid]
21 | 1000 to 5000 | CC[C@H](CO)NC(=O)c1ccc2c(OC)cc(-c3ccc(C(F)(F)F)cc3C(F)(F)F)nc2c1 [I-338, (R)-2-(2,4-bis(trifluoromethyl)phenyl)-N-(1-hydroxybutan-2-yl)-4-methoxyquinoline-7-carboxamide]

Row | GI50 [nM] | SMILES
22 | ≤ 1000 | C=CC(=O)NCc1cn2c(C(F)(F)F)cnc2c(-c2ccc(C(F)(F)F)cc2)n1 [I-246, N-((3-(trifluoromethyl)-8-(4-(trifluoromethyl)phenyl)imidazo[1,2-a]pyrazin-6-yl)methyl)acrylamide]
23 | ≤ 1000 | C=CC(=O)NCc1cc2cc(F)ccc2c(-c2ccc(C(F)(F)F)cc2)n1 [I-299, N-((6-fluoro-1-(4-(trifluoromethyl)phenyl)isoquinolin-3-yl)methyl)acrylamide]
24 | > 10000 | COc1ccc(-c2nc3cc(C(=O)O)ccc3n3ccnc23)cc1 [I-64, 4-(4-Methoxyphenyl)imidazo[1,2-a]quinoxaline-7-carboxylic acid]
25 | > 10000 | CC1(C)C2CN(c3nc4cc(C(=O)O)ccc4n4cccc34)CC21 (stereo not drawn) [I-31, 4-(6,6-Dimethyl-3-azabicyclo[3.1.0]hexan-3-yl)pyrrolo[1,2-a]quinoxaline-7-carboxylic acid]
26 | ≤ 1000 | COc1cc(-c2ccc(C(F)(F)F)cc2)nc2cc(C(=O)N[C@@H](C)c3ccccc3)ccc12 [I-351, (S)-4-methoxy-N-(1-phenylethyl)-2-(4-(trifluoromethyl)phenyl)quinoline-7-carboxamide]
27 | ≤ 1000 | C=CC(=O)NCc1cn2cc(C(F)(F)F)nc2c(-c2ccc(C(F)(F)F)cc2)n1 [I-247, N-((2-(trifluoromethyl)-8-(4-(trifluoromethyl)phenyl)imidazo[1,2-a]pyrazin-6-yl)methyl)acrylamide]
28 | ≤ 1000 | C=CC(=O)NCc1nc(-c2ccc(C(F)(F)F)cc2)c2ccncc2n1 [I-309, N-((4-(4-(trifluoromethyl)phenyl)pyrido[3,4-d]pyrimidin-2-yl)methyl)acrylamide]
29 | ≤ 1000 | O=C(O)c1ccc2c(c1)nc(-c1ccc(OC(F)(F)F)cc1)c1cccn12 [I-192, 4-(4-(trifluoromethoxy)phenyl)pyrrolo[1,2-a]quinoxaline-7-carboxylic acid]
30 | 1000 to 5000 | COc1cc(-c2ccc(C(F)(F)F)cc2)nc2cc(NC(=O)[C@@H](CO)c3ccccc3)ccc12 [I-376, (R)-3-Hydroxy-N-(4-methoxy-2-(4-(trifluoromethyl)phenyl)quinolin-7-yl)-2-phenylpropanamide]
31 | 1000 to 5000 | C=CC(=O)NCc1cn2cnnc2c(-c2ccc(C(F)(F)F)cc2)n1 [I-317, N-((8-(4-(trifluoromethyl)phenyl)-[1,2,4]triazolo[4,3-a]pyrazin-6-yl)methyl)acrylamide]
32 | ≤ 1000 | C=CC(=O)NCc1nc(-c2ccc(C(F)(F)F)cc2)cc2nccn12 [I-322, N-((7-(4-(Trifluoromethyl)phenyl)imidazo[1,2-c]pyrimidin-5-yl)methyl)acrylamide]
33 | ≤ 1000 | O=C(O)c1ccc2c(OC3CC3)cc(-c3ccc(C(F)(F)F)cc3)nc2c1 [I-395, 4-cyclopropoxy-2-(4-(trifluoromethyl)phenyl)quinoline-7-carboxylic acid]
34 | 1000 to 5000 | COc1cc(-c2ccc(C(F)(F)F)cc2)nc2cc(C(=O)N3CCC3CO)ccc12 (single isomer, unassigned) [I-372, (2-(hydroxymethyl)azetidin-1-yl) (4-methoxy-2-(4-(trifluoromethyl)phenyl)quinolin-7-yl)methanone]
35 | ≤ 1000 | CC[C@H](CO)NC(=O)c1ccc2c(OC)cc(-c3ccc(C(F)(F)F)cc3C)nc2c1 [I-336, (R)—N-(1-hydroxybutan-2-yl)-4-methoxy-2-(2-methyl-4-(trifluoromethyl)phenyl)quinoline-7-carboxamide]
36 | 1000 to 5000 | O=C(O)c1ccc2c(c1)nc(N1CCC3(CCCC3)C1)c1cccn12 [I-9, 4-(2-Azaspiro[4.4]nonan-2-yl)pyrrolo[1,2-a]quinoxaline-7-carboxylic acid]
37 | 1000 to 5000 | CC(C)c1cc(-c2ccc(C(F)(F)F)cc2)nc2cc(C(=O)O)ccc12 [I-425, 4-isopropyl-2-(4-(trifluoromethyl)phenyl)quinoline-7-carboxylic acid]
38 | > 10000 | O=C(O)c1ccc2c(c1)nc(NCCCC(F)(F)F)c1cccn12 [I-1, 4-((4,4,4-Trifluorobutyl)amino) pyrrolo[1,2-a]quinoxaline-7-carboxylic acid]
39 | > 10000 | O=C(O)c1ccc2c(c1)nc(N1CCC3(CC1)CC3)c1cncn12 [I-116, 4-(6-Azaspiro[2.5]octan-6-yl)imidazo[1,5-a]quinoxaline-7-carboxylic acid]
40 | > 10000 | CC(C)(C)c1ccc(-c2cnc3ccc(C(=O)O)cc3n2)cc1 [I-157, 3-(4-(tert-Butyl)phenyl)quinoxaline-6-carboxylic acid]
41 | 1000 to 5000 | N#CNCc1cn2ccnc2c(-c2ccc(C(F)(F)F)cc2)n1 [I-238, N-((8-(4-(Trifluoromethyl)phenyl)imidazo[1,2-a]pyrazin-6-yl)methyl)cyanamide]
42 | > 10000 | O=C(O)c1ccc2c(c1)nc(N1CCCC(F)(F)C1)c1cccn12 [I-5, 4-(3,3-Difluoropiperidin-1-yl)pyrrolo[1,2-a]quinoxaline-7-carboxylic acid]
